Calls of active or inactive are those of the source. No stated cut-off is given here; in the data, actives have a measured IC50 and inactives only a lower limit.

In the assay the target is Envelope glycoprotein gp160 (Human immunodeficiency virus 1, UniProt Q6QLK5). Nature of the assay: inhibitors of HIV fusion peptide binding, primary screen, biochemical, uHTS, fluorescence dequenching (AID 1986).
Sequence of Envelope glycoprotein gp160 (Q6QLK5 whole entry, the tested form may be a part): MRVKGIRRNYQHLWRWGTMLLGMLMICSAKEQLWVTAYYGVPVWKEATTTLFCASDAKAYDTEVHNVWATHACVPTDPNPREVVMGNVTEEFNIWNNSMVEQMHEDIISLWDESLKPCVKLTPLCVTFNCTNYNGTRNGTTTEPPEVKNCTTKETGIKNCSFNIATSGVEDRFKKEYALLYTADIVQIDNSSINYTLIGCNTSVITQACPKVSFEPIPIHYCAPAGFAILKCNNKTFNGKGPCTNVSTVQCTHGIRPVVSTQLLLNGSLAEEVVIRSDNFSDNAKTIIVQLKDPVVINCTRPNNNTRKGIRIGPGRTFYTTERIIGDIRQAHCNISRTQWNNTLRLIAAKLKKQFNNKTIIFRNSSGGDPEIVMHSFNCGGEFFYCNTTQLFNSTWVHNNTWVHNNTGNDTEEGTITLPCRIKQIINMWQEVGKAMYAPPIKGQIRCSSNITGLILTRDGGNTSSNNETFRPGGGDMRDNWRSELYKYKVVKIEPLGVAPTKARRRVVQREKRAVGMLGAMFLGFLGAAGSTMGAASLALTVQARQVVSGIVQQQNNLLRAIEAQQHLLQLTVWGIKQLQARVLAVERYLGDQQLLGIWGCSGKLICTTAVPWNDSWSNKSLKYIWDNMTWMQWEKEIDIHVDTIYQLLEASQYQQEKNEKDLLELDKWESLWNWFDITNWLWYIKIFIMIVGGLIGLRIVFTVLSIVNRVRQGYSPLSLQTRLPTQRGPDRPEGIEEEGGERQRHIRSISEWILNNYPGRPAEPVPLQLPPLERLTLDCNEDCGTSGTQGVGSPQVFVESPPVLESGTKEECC
As a reminder, the IC50 is the concentration at which inhibition is half-maximal. In the case of `O=C(CSc1nc2ccccc2c(=O)n1Cc1ccccc1)Nc1ccc(Br)cc1C(=O)O`, the IC50 was 14.4 µM (active).
In the case of `Cc1ccc(F)c(NC(=O)/C(C#N)=C(\O)c2ccc(C(C)(C)C)cc2)c1`, the IC50 is 19.6 µM (active).
Regarding `O=c1/c(=C\c2cc([N+](=O)[O-])cc([N+](=O)[O-])c2O)sc2nc3ccccc3n12`, the IC50 was 6.01 µM (active).

Values taken from ChEMBL document CHEMBL1201862, “PubChem BioAssay data set” (2004).
